Reference: ChEMBL document CHEMBL3861982, “Three new alkaloids from Veratrum grandiflorum Loes with inhibition activities on Hedgehog pathway” (Bioorg Med Chem Lett, 2016)

Assay: Inhibition of hedgehog signaling pathway in mouse Shh Light2 cells assessed as inhibition of sonic hedgehog-induced GLI1-mediated transcriptional activity measured after 30 hrs by dual luciferase reporter gene assay
Assay type: cell-based
Conditions: Shh Light2, 30 h

Row | IC50 [nM] | Structure (SMILES)
1 | > 25000 | CC(=O)O[C@H]1C[C@H]2[C@@H]3CC=C4C[C@@H](O[C@@H]5O[C@H](CO)[C@@H](O)[C@H](O)[C@H]5O)CC[C@]4(C)[C@H]3CC[C@]2(C)[C@H]1[C@H](C)C1=NC[C@H](C)CC1
2 | 3110 | CC(=O)O[C@@H]1C[C@H]2[C@@H](CC=C3C[C@@H](O)CC[C@@]32C)[C@@H]2CC[C@H]([C@@](C)(O)C3=NC[C@H](C)CC3)[C@@]12C
3 | > 25000 | C/C=C(/C)C(=O)O[C@H]1CC[C@@]2(C)[C@@H]3CC[C@H]4[C@]5(O)[C@@H](O)[C@H](O)[C@H]6[C@@H](CN7C[C@@H](C)CC[C@H]7[C@@]6(C)O)[C@@H]5C[C@@]42O[C@@]13O
4 | 1110 | CC(=O)O[C@@H]1C[C@H]2[C@@H](CC=C3C[C@@H](O[C@@H]4O[C@H](CO)[C@@H](O)[C@H](O)[C@H]4O)CC[C@@]32C)[C@@H]2CC[C@H]([C@H](C)C3=NC[C@H](C)CC3=O)[C@@]12C
5 | 630 | Cc1c([C@H](C)[C@H]2CC[C@H](C)CN2)ccc2c1C[C@H]1[C@H]2CC=C2C[C@@H](O)CC[C@@]21C
6 | 2780 | CC(=O)O[C@@H]1C[C@H]2[C@@H](CC=C3C[C@@H](O[C@@H]4O[C@H](CO)[C@@H](O)[C@H](O)[C@H]4O)CC[C@@]32C)[C@@H]2CC[C@H]([C@@](C)(O)C3=NC[C@H](C)CC3)[C@@]12C

Row | Structure (SMILES) | IC50 [nM]
7 | C[C@H]1CC[C@@H]2[C@@H](C)[C@H]3[C@H](C[C@H]4[C@@H]5CC=C6C[C@@H](O)CC[C@]6(C)[C@H]5CC[C@]34C)N2C1 | > 25000
8 | CC1=C2C[C@H]3[C@@H](CC=C4C[C@@H](O)CC[C@@]43C)[C@@H]2CC[C@]12O[C@@H]1C[C@H](C)CN[C@H]1[C@H]2C [CYCLOPAMINE] | 74.1
